Test results taken from PMC9502539, “1,2,3-Triazole-Benzofused Molecular Conjugates as Potential Antiviral Agents against SARS-CoV-2 Virus Variants” (Life, 2022).
Values after ≈ are worked out from the molar mass of the structure shown.

Tests used:
SARS-CoV-2 [1] = conditions: cited from earlier work
SARS-CoV-2 spike protein = target: T1, SARS-CoV-2 spike protein (Severe acute respiratory syndrome coronavirus 2, UniProt P0DTC2); assay: biochemical; type: binding; conditions: read-out: remaining activity % of SARS-CoV-2 spike proteins; for remaining activity at 0.1 µM: tested concentration 100 nM; for remaining activity at 0.2 µM: tested concentration 200 nM; for remaining activity at 0.5 µM: tested concentration 500 nM; for remaining activity at 0.75 µM: tested concentration 750 nM; for remaining activity at 1 µM: tested concentration 1000 nM
T1 construct: purchased Biosource, Muskego, WI, USA

SARS-CoV-2 [2] = assay: microbe, parasite or virus in culture; type: cell-based; conditions: for EC50: Severe acute respiratory syndrome coronavirus 2, Vero C1008
in vitro = conditions: African green monkey
IL-6 = assay: Proinflammatory cytokine production (ELISA) in infected cells; type: cell-based; conditions: infected cells treated with compound vs infected untreated
IL-1β = assay: as above; type: cell-based; conditions: infected cells treated with compound vs infected untreated

SMILES	antiviral activity against SARS-CoV-2 (SARS-CoV-2 [1])	remaining activity at 0.1 µM (SARS-CoV-2 spike protein) [%]	remaining activity at 0.2 µM (SARS-CoV-2 spike protein) [%]	remaining activity at 0.5 µM (SARS-CoV-2 spike protein) [%]	remaining activity at 0.75 µM (SARS-CoV-2 spike protein) [%]	remaining activity at 1 µM (SARS-CoV-2 spike protein) [%]	Selectivity Index (SI) (SARS-CoV-2 [2])	EC50 (SARS-CoV-2 [2]) [mg/L]	CC50 (in vitro) [mg/L]	IL-6 protein expression level (IL-6)	IL-1β protein expression level (IL-1β)
Fc1ccc2nc(C(F)(F)F)cc(OCc3cn(-c4ccccc4Cl)nn3)c2c1 [10 g, 4-((1-(2-chlorophenyl)-1H-1,2,3-triazol-4-yl)methoxy)-6-fluoro-2-(trifluoromethyl)quinoline]	high antiviral activity	–	–	–	–	–	–	–	–	–	–
COc1ccc(-n2cc(CCOc3cc(C(F)(F)F)nc4ccc(F)cc34)nn2)cc1 [12c, 6-fluoro-4-(2-(1-(4-methoxyphenyl)-1H-1,2,3-triazol-4-yl)ethoxy)-2-(trifluoromethyl)quinoline]	high antiviral activity	–	–	–	–	–	–	–	–	–	–
CC(C)(O/N=C(\C(=O)N[C@@H]1C(=O)N2C(C(=O)[O-])=C(C[n+]3ccccc3)CS[C@H]12)c1csc(N)n1)C(=O)O [Ceftazidime, ceftazidime, reference compound]	–	99	79	59	55.1	45.2	12.29	85.1 (≈ 156 µM)	1050 (≈ 1910 µM)	–	–
O=C(Cn1cc(CSc2nc3ccccc3n2Cc2cn(CC(=O)NNC(=S)Nc3ccccc3)nn2)nn1)NNC(=S)Nc1ccccc1 [compound 4]	–	74.6	46	21.9	20	18	10.90	174 (≈ 240 µM)	1900 (≈ 2610 µM)	–	–
O=C(Cn1cc(CSc2nc3ccccc3n2Cc2cn(CC(=O)NNC(=S)Nc3ccc(F)cc3)nn2)nn1)NNC(=S)Nc1ccc(F)cc1 [compound 5]	–	83.8	70.2	45.8	32	26	8.82	231 (≈ 303 µM)	2040 (≈ 2670 µM)	–	–
S=c1[nH]nc(Cn2cc(CSc3nc4ccccc4n3Cc3cn(Cc4n[nH]c(=S)n4-c4ccccc4)nn3)nn2)n1-c1ccccc1 [compound 6]	–	79.9	65.4	38.2	27	20	6.87	155 (≈ 224 µM)	1070 (≈ 1540 µM)	–	–
Nn1c(Cn2cc(CSc3nc4ccccc4n3Cc3cn(Cc4n[nH]c(=S)n4N)nn3)nn2)n[nH]c1=S [compound 7]	–	86.1	77.2	58.6	44	40	5.0	306 (≈ 538 µM)	1530 (≈ 2690 µM)	–	–
Cc1onc(NS(=O)(=O)c2ccc(-n3cc(CSc4nc5ccccc5n4Cc4cn(-c5ccc(S(=O)(=O)Nc6noc(C)c6C)cc5)nn4)nn3)cc2)c1C [compound 9]	–	67.1	32.7	11.4	12	5	–	80.4 (≈ 98.9 µM)	1030 (≈ 1260 µM)	noticeably reduced	noticeably reduced
Cc1ccc2nc(NC(=O)Cn3cc(CN4C(=O)C(=O)c5ccccc54)nn3)sc2c1 [compound 12]	–	95.9	92.5	82	82	70	0.87	382 (≈ 882 µM)	332 (≈ 767 µM)	–	–
